According to ChEMBL document CHEMBL4020755, “Design, synthesis, and biological evaluation of deuterated apalutamide with improved pharmacokinetic profiles” (Bioorg Med Chem Lett, 2017):
One block for each molecule: values may come before it.

Tests used:
Type in all cases: ADME, organism-based
Conditions in all cases: in vivo, po
[1] = Tmax in Balb/c mouse at 10 mg/kg administered orally measured up to 24 hrs by LC-MS/MS analysis
[2] = Cmax in Balb/c mouse at 10 mg/kg administered orally measured up to 24 hrs by LC-MS/MS analysis; parameters: dose 10 mg/kg, route oral
[3] = AUC (0 to 24 hrs) in Balb/c mouse at 10 mg/kg administered orally measured up to 24 hrs by LC-MS/MS analysis; parameters: dose 10 mg/kg, time < 24 hr, route oral
[4] = Half life in Balb/c mouse at 10 mg/kg administered orally measured up to 24 hrs by LC-MS/MS analysis
[5] = Cmax in Sprague-Dawley rat at 10 mg/kg administered orally measured up to 24 hrs by LC-MS/MS analysis; parameters: dose 10 mg/kg, route oral
[6] = AUC (0 to infinity) in Sprague-Dawley rat at 10 mg/kg administered orally measured up to 24 hrs by LC-MS/MS analysis; parameters: dose 10 mg/kg, route oral, time infinity
[7] = Mean residence time in Sprague-Dawley rat 10 mg/kg administered orally measured up to 24 hrs by LC-MS/MS analysis
[8] = Half life in Sprague-Dawley rat 10 mg/kg administered orally measured up to 24 hrs by LC-MS/MS analysis

Structure (SMILES): [2H]C1([2H])CC([2H])([2H])C12C(=O)N(c1cnc(C#N)c(C(F)(F)F)c1)C(=S)N2c1ccc(C(=O)NC)c(F)c1
Tmax [1]: 6 h | Cmax [2]: 2170 ng/mL | AUC(0-t) at 24 h [3]: 41100 ng·h/mL | half-life [4]: 32.3 h

Structure (SMILES): [2H]C([2H])([2H])NC(=O)c1ccc(N2C(=S)N(c3cnc(C#N)c(C(F)(F)F)c3)C(=O)C23CCC3)cc1F
Tmax [1]: 4 h | Cmax [2]: 4480 ng/mL | AUC(0-t) at 24 h [3]: 87800 ng·h/mL | half-life [4]: 32.3 h | Cmax [5]: 1700 ng/mL | AUC(0-inf) [6]: 28700 ng·h/mL | MRT [7]: 13 h | half-life [8]: 8.9 h

Now from value to molecule:

Tmax [1]: 6 h | Cmax [2]: 3320 ng/mL | AUC(0-t) at 24 h [3]: 61600 ng·h/mL | half-life [4]: 5.9 h | Cmax [5]: 946 ng/mL | AUC(0-inf) [6]: 14800 ng·h/mL | MRT [7]: 10.7 h | half-life [8]: 7.4 h
Structure (SMILES): CNC(=O)c1ccc(N2C(=S)N(c3cnc(C#N)c(C(F)(F)F)c3)C(=O)C23CCC3)cc1F [APALUTAMIDE]

Tmax [1]: 6 h | Cmax [2]: 3480 ng/mL | AUC(0-t) at 24 h [3]: 63800 ng·h/mL | half-life [4]: 6.6 h
Structure (SMILES): [2H]c1cc(C(=O)NC)c(F)c([2H])c1N1C(=S)N(c2cnc(C#N)c(C(F)(F)F)c2)C(=O)C12CCC2

Tmax [1]: 4 h | Cmax [2]: 3940 ng/mL | AUC(0-t) at 24 h [3]: 80600 ng·h/mL | half-life [4]: 54.9 h
Structure (SMILES): [2H]c1cc(C(=O)NC([2H])([2H])[2H])c(F)c([2H])c1N1C(=S)N(c2cnc(C#N)c(C(F)(F)F)c2)C(=O)C12CCC2
